Data published in patent US6841547B2, “Method for decreasing low density lipoprotein” (Albert Einstein College of Medicine of Yeshevia University, priority 2003, dated 2005).

How the values were obtained:
[1] = 6-month regimen of sub-antibacterial doxycycline: cholesterol fractions in plasma of acute coronary syndrome patients with elevated baseline cholesterol; type: in vivo, human
Experimental: After six months, the cholesterol fractions were then measured (Table 1). Table 1: The Effect of a 6-Month Regimen of Sub-Antibacterial Doxycycline on Cholesterol Values in Plasma of Acute Coromary Syndrome Patients with Elevated Baseline Cholesterol

[2] = in vivo; cited from earlier work
[3] = humans; cited from earlier work

Row | SMILES | Change Due to Treatment, HDL/Cholesterol (Increase) ([1]; 6 months vs baseline, doxycycline 20 mg twice a day) | Change Due to Treatment, LDL-Cholesterol (Reduction) ([1]; 6 months vs baseline, doxycycline 20 mg twice a day, p=0.033) | Total Cholesterol, 6 Month Level ([1]; plasma, doxycycline 20 mg twice a day for six months, 3 patients on statins, baseline 231 ± 20) | HDL-Cholesterol, 6 Month Level ([1]; plasma, doxycycline 20 mg twice a day for six months, baseline 48 ± 17) | LDL-Cholesterol, 6 Month Level ([1]; plasma, doxycycline 20 mg twice a day for six months, baseline 155 ± 9) | HDL/Cholesterol, 6 Month Level ([1]; ratio of HDL-cholesterol to total cholesterol, doxycycline 20 mg twice a day for six months, baseline 0.21) | Effect on serum cholesterol levels [2] | Effect on serum cholesterol [3]
1 | C[C@H]1c2cccc(O)c2C(=O)C2=C(O)[C@]3(O)C(=O)C(C(N)=O)=C(O)[C@@H](N(C)C)[C@@H]3[C@@H](O)[C@@H]21 [doxycycline] | 19% | 31% | 190 ± 20 mg % | 48 ± 18 mg % | 107 ± 12 mg % | 0.25 |  | 
2 | CN(C)[C@@H]1C(O)=C(C(N)=O)C(=O)[C@@]2(O)C(O)=C3C(=O)c4c(O)cccc4[C@@](C)(O)[C@H]3C[C@@H]12 [tetracycline] |  |  |  |  |  |  | reduce serum cholesterol levels | no effect
